The text below walks through data of patent publication US20230365571A1, “COMPOUNDS AND COMPOSITIONS AS Sppl2a INHIBITORS” (Novartis AG, priority 2020, published 2023).

Assay [1] addresses T1, human SPPL2a (Homo sapiens, UniProt Q8TCT8).
T1 sequence (Q8TCT8 26-520): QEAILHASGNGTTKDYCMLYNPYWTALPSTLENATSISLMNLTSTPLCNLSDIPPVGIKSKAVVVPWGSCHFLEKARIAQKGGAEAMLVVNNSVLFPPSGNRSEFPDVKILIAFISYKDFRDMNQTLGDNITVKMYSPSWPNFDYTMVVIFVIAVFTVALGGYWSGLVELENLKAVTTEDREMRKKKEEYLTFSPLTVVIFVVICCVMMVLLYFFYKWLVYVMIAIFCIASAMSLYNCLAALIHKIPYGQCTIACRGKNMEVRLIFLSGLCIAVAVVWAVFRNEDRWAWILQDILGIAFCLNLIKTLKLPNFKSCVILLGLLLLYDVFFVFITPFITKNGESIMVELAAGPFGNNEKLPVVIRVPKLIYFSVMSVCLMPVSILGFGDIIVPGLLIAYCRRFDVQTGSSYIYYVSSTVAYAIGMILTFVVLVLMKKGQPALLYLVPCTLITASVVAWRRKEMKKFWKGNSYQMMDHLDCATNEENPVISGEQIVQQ
Put plainly: Sppl2a RGA (reporter gene assay) in HEK293 cells. The class given is cell-based. More on the design: expressed in transfected cells; host or cells: HEK293 (transient). The note with it: NT-TNF-VP16-Gal4 substrate, Gal4-luciferase reporter, 24 h. From the text: Sppl2a RGA (Reporter Gene Assay):
Sppl2a is an intramembrane aspartyl protease with similarities to presenilin, the active subunit of the γ-secretase complex. The assay is based on the coupling of the proteolytic degradation of a membrane bound synthetic substrate (VP16-Gal4 fusion protein with the N-terminal domain of TNF alpha), which migrates to the nucleus upon cleavage, with the Gal4 driven expression of luciferase. Inhibition of Sppl2a results in a reduction of nuclear VP16-Gal4 activator and therefore in a reduction of the production of luciferase. The luciferase dependent-luminescence is plotted against the concentrations of compound to generate a dose response curve, which allows the calculation of the IC50 value.
DNA vectors encoding human Sppl2a, NT-TNF-VP16-Gal4 and a Gal4-luciferase reporter were transiently transfected in HEK293 cells. In a typical experiment 5 μg plasmid for SPPL2a, 10 μg plasmid encoding the reporter Gal4-luciferase and 20 μg plasmid encoding the substrate NT-TF-VP16-Gal4 were mixed together. The DNA mixture was combined with 107 μl FuGENE® (Promega), 735 μl Opti-MEM® (Life Technologies) and incubated for 5 minutes at RT. To this mixture 20 mL of concentrated HEK293 cells were added and thoroughly mixed. The cell suspension was distributed to a white solid 384 well plate. Within 5 hours, 50 nl of compound in DMSO was stamped into the wells via pintool. The plate was incubated for 24 h at 37° C., 5% CO2 in a humidified incubator, before the addition of 25 μl Bright Glo. After incubation at RT for 5 min, the plate was transferred to a luminometer and the luminescence was measured. The IC50 was determined by plotting compound concentration vs. normalized luminescence values.

The target of assay [2] is T1, human SPPL2a. Put plainly: Sppl2a TL (translocation) imaging assay in U-2 OS cells. The class given is cell-based. The note with it: U-2 OS cells expressing human SPPL2a and EGFP-TNFα(aa1-76) NTF substrate; 24 h. Set-up: expressed in transfected cells. The method, then: SPPL2a, TL in U-2 OS Cells. Stable U-2 OS cell lines expressing human SPPL2a constitutively and a EGFP-labeled TNFα(aa1-76) NTF substrate under a doxycycline-regulated promoter were used for the imaging assays. Cells were seeded at 3000 cells/30 μL/384-well in DMEM/GlutaMax™-I (Invitrogen) supplemented with tetracycline-free 10% FBS (Amimed) and incubated at 37° C., 5% CO2 for 3-4 h. Subsequently, 3.3 μL of inhibitors, prediluted in doxycycline-containing medium for 11-point concentration-response curves, were added to each well using a CyBi well liquid handling device (Cybio AG, Jena, Germany) to result in final inhibitor concentrations ranging from 100 μM to 1 nM (final DMSO concentration 0.9% (v/v)) and 5 μg/mL doxycycline). The cells were incubated with inhibitor at 37° C., 5% CO2 for 24 h. Thereafter cell were fixed in 4% PFA/PBS and in parallel, nuclei were stained with Hoechst (Invitrogen) 1:5000 in PBS for 30 min. The plates were imaged using a Cellomics ArrayScan VTI HCS reader with 10×/0.3NA objective (Thermo Fisher Scientific, USA). Six images per well were acquired. Images for the EGFP signal (Ex395, Em509) and the Hoechst nuclear dye (Ex350, Em425) were acquired simultaneously with image analysis using the “Nuclear Translocation” assay algorithm of the Cellomics ArrayScan software. Nuclei were detected based on the Hoechst staining, the nuclear mask was transferred to the EGFP channel, and a 4 pixel wide cytoplasm ring region was defined around the nucleus. The intensity of the EGFP signal was measured both in the nuclear and in the cytoplasm ring region of each individual cell (in general 800-1000 individual cells were analyzed per well), and the difference of the average nuclear versus average cytoplasmic intensity of the EGFP signal was calculated (“CircRingAvgIntenDiffCh2”=“CircAvgIntenCh2”−“RingAvgIntenCh2”). Additionally the number of cells were acquired (feature termed “ValidCellCount”) and used to calculate cell toxicity (CC50). Percent inhibition was calculated relative to the positive (0.5 μM LY-411,575=100% inhibition) and negative (DMSO=0% inhibition) controls. The IC50 value was calculated from the plot of percentage of inhibition vs inhibitor concentration using nonlinear regression analysis software, e.g., Origin (OriginLab Corp.).

Regarding `O=C(NC[C@H](C(=O)N[C@@H]1C(=O)N2CCCN2C(=O)c2ccccc21)C(F)(F)F)c1sc(-c2ccc(C(F)(F)F)nc2)nc1Cl` [Example 40, 4-Chloro-N-((R)-2-(((S)-5,11-dioxo-2,3,10,11-tetrahydro-1H,5H-benzo[d]pyrazolo [1,2-a][1,2]diazepin-10-yl)carbamoyl)-3,3,3-trifluoropropyl)-2-(6-(trifluoromethyl)pyridin-3-yl)thiazole-5-carboxamide], the IC50 at human SPPL2a [1] worked out at 0.042 µM; against human SPPL2a [2] it was 0.057 µM.

Consider `Cc1cc(-c2nc(C)c(C(=O)NC[C@H](C(=O)N[C@@H]3C(=O)N4CCCN4C(=O)c4ccccc43)C3CC3)s2)on1` [Example 41, N-((R)-2-Cyclopropyl-3-(((S)-5,11-dioxo-2,3,10,11-tetrahydro-1H,5H-benzo[d]pyrazolo [1,2-a][1,2]diazepin-10-yl)amino)-3-oxopropyl)-4-methyl-2-(3-methylisoxazol-5-yl)thiazole-5-carboxamide], for which the results for the IC50 on human SPPL2a [1] and against human SPPL2a [2] were 0.037 µM and 0.059 µM, respectively.

For `Cc1nc(C2=CCOCC2)sc1C(=O)NC[C@H](C(=O)N[C@@H]1C(=O)N2CCCN2Cc2ccccc21)C(F)(F)F` [Example 44, 2-(3,6-Dihydro-2H-pyran-4-yl)-4-methyl-N-((R)-3,3,3-trifluoro-2-(((S)-11-oxo-2,3,10,11-tetrahydro-1H,5H-benzo[d]pyrazolo [1,2-a][1,2]diazepin-10-yl)carbamoyl)pro-pyl)thiazole-5-carboxamide], the IC50 is 0.027 µM on human SPPL2a [1] and 0.067 µM against human SPPL2a [2].

Consider `Cc1noc(C)c1C(=O)NC[C@H](C(=O)N[C@@H]1C(=O)N2CCCN2C(=O)c2ccccc21)C(F)(F)F` [Example 48, N-((R)-2-(((S)-5,11-Dioxo-2,3,10,11-tetrahydro-1H,5H-benzo[d]pyrazolo [1,2-a][1,2]diazepin-10-yl)carbamoyl)-3,3,3-trifluoropropyl)-3,5-dimethylisoxazole-4-carboxamide], for which the IC50 on human SPPL2a [1] amounted to 0.022 µM; on human SPPL2a [2], 0.085 µM.

With `CC[C@H](CNC(=O)c1scnc1Cl)C(=O)N[C@@H]1C(=O)N2CC3(CC3)CN2C(=O)c2ccccc21` [Example 49, 4-Chloro-N-((R)-2-(((S)-5,11-dioxo-10,11-dihydro-1H,3H,5H-spiro [benzo[d]pyr-azolo[1,2-a][1,2]diazepine-2,1″-cyclopropan]-10-yl)carbamoyl)butyl) thiazole-5-carboxamide], the IC50 against human SPPL2a [1] was found to be 0.089 µM; against human SPPL2a [2] it was 0.091 µM.

For `CC[C@H](CNC(=O)c1oncc1C)C(=O)N[C@@H]1C(=O)N2CCCN2Cc2ccccc21` [Example 51, 4-Methyl-N-((R)-2-(((S)-11-oxo-2,3,10,11-tetrahydro-1H,5H-benzo[d]pyrazolo [1,2-a][1,2]diazepin-10-yl)carbamoyl)butyl) isoxazole-5-carboxamide], the figures for the concentration for half-maximal inhibition (IC50) at human SPPL2a [1] and at human SPPL2a [2] were 0.052 µM and 0.099 µM, respectively.

In the case of `O=C(NC[C@H](C(=O)N[C@@H]1C(=O)N2CCCN2Cc2c(F)cccc21)C1CC1)c1sc(C2CC2)nc1Cl` [Example 54, 4-Chloro-2-cyclopropyl-N-((R)-2-cyclopropyl-3-(((S)-6-fluoro-11-oxo-2,3,10,11-tetrahydro-1H,5H-benzo[d]pyrazolo [1,2-a][1,2]diazepin-10-yl)amino)-3-oxopropyl)thiazole-5-carboxamide], the IC50 against human SPPL2a [1] stood at 0.048 µM; against human SPPL2a [2], 0.129 µM.

Consider `Cc1nc(Cl)c(C(=O)NC[C@H](C(=O)N[C@@H]2C(=O)N3CCCN3Cc3c(F)cccc32)C2CC2)s1` [Example 55, 4-Chloro-N-((R)-2-cyclopropyl-3-(((S)-6-fluoro-11-oxo-2,3,10,11-tetrahydro-1H,5H-benzo[d]pyrazolo [1,2-a][1,2]diazepin-10-yl)amino)-3-oxopropyl)-2-methylthiazole-5-carboxamide], for which the IC50 at human SPPL2a [1] was 0.152 µM; on human SPPL2a [2], 0.163 µM.

Take `CC[C@H](CNC(=O)c1ccnn1C(F)F)C(=O)N[C@@H]1C(=O)N2CC3(CC3)CN2C(=O)c2ccccc21` [Example 56, 1-(Difluoromethyl)-N-((R)-2-(((S)-5,11-dioxo-10,11-dihydro-1H,3H,5H-spiro[benzo[d]pyr-azolo[1,2-a][1,2]diazepine-2,1′-cyclopropan]-10-yl)carbamoyl)butyl)-1H-pyrazole-5-carboxamide]: the figures for the IC50 on human SPPL2a [1] and against human SPPL2a [2] were 0.101 µM and 0.191 µM, respectively.

`CC[C@H](CNC(=O)c1scnc1C(F)(F)F)C(=O)N[C@@H]1C(=O)N2CC3(CC3)CN2C(=O)c2ccccc21` [Example 57, N-((R)-2-(((S)-5,11-Dioxo-10,11-dihydro-1H,3H,5H-spiro[benzo[d]pyr-azolo[1,2-a][1,2]diazepine-2,1′-cyclopropan]-10-yl)carbamoyl)butyl)-4-(trifluoromethyl) thiazole-5-carboxamide]: the IC50 against human SPPL2a [1] came out at 0.148 µM; on human SPPL2a [2] it was 0.332 µM.

As to `Cc1nc(Cc2ccccc2)sc1C(=O)NC[C@@H](C)C(=O)N[C@@H]1C(=O)N2CCCN2Cc2ccccc21` [Example 58, 2-Benzyl-4-methyl-N-((R)-2-methyl-3-oxo-3-(((S)-11-oxo-2,3,10,11-tetrahydro-1H,5H-benzo[d]pyrazolo [1,2-a][1,2]diazepin-10-yl)amino)propyl) thiazole-5-carboxamide], the values for the IC50 against human SPPL2a [1] and against human SPPL2a [2] were 0.194 µM and 0.373 µM, respectively.

Regarding `CC[C@H](CNC(=O)c1sc(C2CC2)nc1C(F)(F)F)C(=O)N[C@@H]1C(=O)N2CC3(CC3)CN2C(=O)c2ccccc21` [Example 59, 2-Cyclopropyl-N-((R)-2-(((S)-5,11-dioxo-10,11-dihydro-1H,3H,5H-spiro[benzo[d]pyr-azolo[1,2-a][1,2]diazepine-2,1′-cyclopropan]-10-yl)carbamoyl)butyl)-4-(trifluoromethyl) thiazole-5-carboxamide], the IC50 on human SPPL2a [1] was determined as 0.661 µM; against human SPPL2a [2], 0.555 µM.

`Cc1ccn(C)c1C(=O)NC[C@@H](C)C(=O)N[C@@H]1C(=O)N2CCCN2Cc2ccccc21` [Example 60, 1,3-dimethyl-N-((R)-2-methyl-3-oxo-3-(((S)-11-oxo-2,3,10,11-tetrahydro-1H,5H-benzo[d]pyrazolo [1,2-a][1,2]diazepin-10-yl)amino)propyl)-1H-pyrrole-2-carboxamide]: the IC50 against human SPPL2a [1] turned out to be 0.277 µM; against human SPPL2a [2], 0.58 µM.
